Measured values: US12540118B2, “Dendrene amide compound, bactericide and use thereof” (Jiangsu Flag Chemical Industry Co., Ltd., priority 2020, dated 2026)

How the values were obtained:
Erysiphe graminis = Erysiphe graminis potting method; assay type: in vivo; details: Blumeria graminis, read-out: Erysiphe graminis control rating; for pest or weed control at 100 µg/mL: 100 mg/L; for pest or weed control at 6.25 µg/mL: 6.25 mg/L; for pest or weed control at 25 µg/mL: 25 mg/L
Protocol: The fungicidal activity of the control agents and target compounds are determined. The test and investigation method refers to SOP-SC-1116 Erysiphe graminis potting method in disinfectant rolls written by KANGZHUO and GUBAOGEN in “Standard operation specification for testing biological activity of pesticides”.

succinate dehydrogenase = target: T1, succinate dehydrogenase (Sus scrofa, UniProt A5GZW8+D0VWV4+Q007T0); experiment: Enzyme activity assay, succinate dehydrogenase (DCIP reduction); assay type: biochemical, porcine; details: read-out: Inhibitors (10 μM, SQR)
T1 construct: isolated from porcine hearts; from tissue; host or cells: porcine heart
T1 sequence (Q0QF01 43-664 partner): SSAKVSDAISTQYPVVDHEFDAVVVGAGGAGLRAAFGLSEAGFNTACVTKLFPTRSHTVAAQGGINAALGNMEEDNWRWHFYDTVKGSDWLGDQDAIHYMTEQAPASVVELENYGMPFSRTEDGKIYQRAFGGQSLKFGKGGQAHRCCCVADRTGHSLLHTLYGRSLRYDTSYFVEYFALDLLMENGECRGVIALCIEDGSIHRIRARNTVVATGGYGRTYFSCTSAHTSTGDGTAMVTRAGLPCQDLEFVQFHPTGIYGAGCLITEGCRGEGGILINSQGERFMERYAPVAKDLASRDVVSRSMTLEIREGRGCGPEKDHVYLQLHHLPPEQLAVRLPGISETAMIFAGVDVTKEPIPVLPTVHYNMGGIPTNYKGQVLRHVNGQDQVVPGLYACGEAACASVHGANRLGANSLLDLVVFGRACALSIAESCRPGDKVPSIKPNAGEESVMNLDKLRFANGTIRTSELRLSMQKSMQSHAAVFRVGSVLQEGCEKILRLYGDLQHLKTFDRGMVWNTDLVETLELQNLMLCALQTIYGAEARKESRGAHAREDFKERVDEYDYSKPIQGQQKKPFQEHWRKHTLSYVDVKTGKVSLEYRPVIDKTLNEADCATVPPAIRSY
T1 sequence (Q007T0 29-280): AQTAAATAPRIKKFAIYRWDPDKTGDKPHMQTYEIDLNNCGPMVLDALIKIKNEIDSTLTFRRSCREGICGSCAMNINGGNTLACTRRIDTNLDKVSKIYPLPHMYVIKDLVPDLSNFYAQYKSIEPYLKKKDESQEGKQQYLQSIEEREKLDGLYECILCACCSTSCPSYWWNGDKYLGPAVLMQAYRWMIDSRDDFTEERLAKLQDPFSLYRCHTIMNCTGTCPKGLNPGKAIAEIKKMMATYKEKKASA
T1 sequence (D0VWV4 30-169): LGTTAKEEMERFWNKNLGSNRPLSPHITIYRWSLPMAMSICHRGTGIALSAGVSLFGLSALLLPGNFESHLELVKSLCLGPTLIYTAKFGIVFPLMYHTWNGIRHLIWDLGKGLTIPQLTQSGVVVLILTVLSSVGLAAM
T1 sequence (A5GZW8 57-159 limits assumed): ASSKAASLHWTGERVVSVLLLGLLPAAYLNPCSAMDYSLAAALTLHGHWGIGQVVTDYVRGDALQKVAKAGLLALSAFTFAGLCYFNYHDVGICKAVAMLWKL
Protocol: The inhibitory activities of control agents and target compounds on succinate dehydrogenase are determined.
The enzyme used in this test example is succinate dehydrogenase, which is isolated from porcine hearts.
The test method comprises the following steps: The total volume of the system is 1.8 ml, and the system contained 100 mM Na2HPO4—NaH2PO4 buffer (pH=7.4), 0.3 mM EDTA, 20 mM sodium succinate, 53 μM DCIP (2,6-dichloroindophenol sodium), and 2 nM succinate dehydrogenase. Thermostatic waterbath at 23° C. and magnetic stirring at 600 rpm. The decrease in the light absorption of the substrate DCIP is monitored at a wavelength of 600 nm and experimental points in a linear range are collected. Control substrate consumption not more than 5% of the experimental points. The molar extinction coefficient of DCIP is 21 mM^−1 cm^−1. And calculating the reduction yield of the DCIP in the reaction time, fitting a linear slope, and deducting the baseline slope to obtain the initial reaction speed.

Sphaerotheca fuliginea = Sphaerotheca fuliginea potting method; assay type: in vivo; details: Podosphaera fuliginea; 100 mg/L; read-out: Sphaerotheca fuliginea control rating
Protocol: The fungicidal activity of the control agents and target compounds are determined. The test and investigation method refers to SOP-SC-1101 sphaerotheca fuliginea potting method in disinfectant rolls written by KANGZHUO and GUBAOGEN in “Standard operation specification for testing biological activity of pesticides”.

| inhibition at 10 µM (succinate dehydrogenase) [%] | SMILES | pest or weed control at 100 µg/mL (Erysiphe graminis) [%] | pest or weed control at 100 µg/mL (Sphaerotheca fuliginea) [%] | pest or weed control at 6.25 µg/mL (Erysiphe graminis) [%] | pest or weed control at 25 µg/mL (Erysiphe graminis) [%] |
| --- | --- | --- | --- | --- | --- |
| > 90 | C=C(CN(C(=O)c1c(C(F)F)nn(C)c1F)C1CC1)c1cccc(Br)c1Br [Compound 86] | 80 to 100 | 80 to 100 | – | – |
| > 90 | C=C(c1cccc(C(F)(F)F)c1Cl)C(C)N(C(=O)c1c(C(F)F)nn(C)c1F)C1CC1 (stereo not shown) [Compound 101] | 80 to 100 | 80 to 100 | – | – |
| > 90 | C=C(CN(C(=O)c1c(C(F)F)nn(C)c1F)C1CC1)c1cc(C(F)(F)F)ccc1Cl [Compound 45] | 80 to 100 | 80 to 100 | – | – |
| > 90 | Cn1nc(C(F)F)c(C(=O)N(CC(=C(Cl)Cl)c2ccccc2S(C)(=O)=O)C2CC2)c1F [Compound 161] | 80 to 100 | 80 to 100 | – | – |
| > 90 | C=C(c1ccc(Br)cc1Br)C(C)N(C(=O)c1c(C(F)F)nn(C)c1F)C1CC1 (stereo not shown) [Compound 82] | 80 to 100 | 80 to 100 | – | – |
| > 90 | Cn1nc(C(F)F)c(C(=O)N(CC(=C(Cl)Cl)c2ccc(Br)cc2)C2CC2)c1F [Compound 131] | 80 to 100 | 80 to 100 | – | – |
| > 90 | Cc1ccc(C(C)(C)C)c(C(CN(C(=O)c2c(C(F)F)nn(C)c2F)C2CC2)=C(Cl)Cl)c1 [Compound 146] | 80 to 100 | 80 to 100 | – | – |
| > 90 | C=C(CN(C(=O)c1c(C(F)F)nn(C)c1F)C1CC1)c1cc(S(C)(=O)=O)ccc1Cl [Compound 51] | 80 to 100 | 80 to 100 | – | – |
| > 90 | C=C(CN(C(=O)c1c(C(F)F)nn(C)c1F)C1CC1)c1cccc(F)c1F [Compound 12] | 80 to 100 | 70 to 80 | – | – |
| > 90 | Cc1ccc(C(C)C)c(C(=C(Cl)Cl)C(C)N(C(=O)c2c(C(F)F)nn(C)c2F)C2CC2)c1 (stereo not shown) [Compound 198] | 80 to 100 | 80 to 100 | – | – |
| > 90 | CC(C(=C(Cl)Cl)c1ccc(Br)cc1)N(C(=O)c1c(C(F)F)nn(C)c1F)C1CC1 (stereo not shown) [Compound 184] | 80 to 100 | 80 to 100 | – | – |
| > 90 | C=C(CN(C(=O)c1c(C(F)F)nn(C)c1F)C1CC1)c1cc(C)ccc1C [Compound 34] | 80 to 100 | 80 to 100 | 70 to 80 | 80 to 100 |
| > 90 | Cn1nc(C(F)F)c(C(=O)N(CC(=C(Cl)Cl)c2c(Br)cc(Br)cc2Br)C2CC2)c1F [Compound 137] | 80 to 100 | 80 to 100 | – | – |
| > 90 | C=C(c1cc(C)ccc1C(C)C)C(C)N(C(=O)c1c(C(F)F)nn(C)c1F)C1CC1 (stereo not shown) [Compound 93] | 80 to 100 | 80 to 100 | – | – |
| > 90 | C=C(CN(C(=O)c1c(C(F)F)nn(C)c1F)C1CC1)c1c(C)cccc1C [Compound 35] | 80 to 100 | 80 to 100 | 70 to 80 | 80 to 100 |
| > 90 | C=C(c1cc(Cl)ccc1Cl)C(C)N(C(=O)c1c(C(F)F)nn(C)c1F)C1CC1 (stereo not shown) [Compound 76] | 80 to 100 | 80 to 100 | – | – |
| > 90 | C=C(c1cc(S(C)(=O)=O)ccc1Cl)C(C)N(C(=O)c1c(C(F)F)nn(C)c1F)C1CC1 (stereo not shown) [Compound 106] | 80 to 100 | 80 to 100 | – | – |
| > 90 | C=C(CN(C(=O)c1c(C(F)F)nn(C)c1F)C1CC1)c1ccccc1F [Compound 20] | 80 to 100 | 80 to 100 | – | – |
| > 90 | Cc1ccc(C(CN(C(=O)c2c(C(F)F)nn(C)c2F)C2CC2)=C(Cl)Cl)cc1 [Compound 150] | 80 to 100 | 80 to 100 | – | – |
| > 90 | C=C(c1ccc(Cl)cc1F)C(C)N(C(=O)c1c(C(F)F)nn(C)c1F)C1CC1 (stereo not shown) [Compound 97] | 80 to 100 | 80 to 100 | – | – |
| > 90 | C=C(c1c(Br)cccc1Br)C(C)N(C(=O)c1c(C(F)F)nn(C)c1F)C1CC1 (stereo not shown) [Compound 84] | 80 to 100 | 80 to 100 | – | – |

| inhibition at 10 µM (succinate dehydrogenase) [%] | SMILES | pest or weed control at 100 µg/mL (Erysiphe graminis) [%] | pest or weed control at 100 µg/mL (Sphaerotheca fuliginea) [%] | pest or weed control at 6.25 µg/mL (Erysiphe graminis) [%] | pest or weed control at 25 µg/mL (Erysiphe graminis) [%] |
| --- | --- | --- | --- | --- | --- |
| > 90 | Cc1ccc(C(C)C)c(C(CN(C(=O)c2c(C(F)F)nn(C)c2F)C2CC2)=C(Cl)Cl)c1 [Compound 145] | 80 to 100 | 80 to 100 | – | – |
| > 90 | Cc1ccc(C(=C(Cl)Cl)C(C)N(C(=O)c2c(C(F)F)nn(C)c2F)C2CC2)cc1C (stereo not shown) [Compound 204] | 80 to 100 | 80 to 100 | – | – |
| > 90 | CC(C(=C(Cl)Cl)c1ccccc1Cl)N(C(=O)c1c(C(F)F)nn(C)c1F)C1CC1 (stereo not shown) [Compound 168] | 80 to 100 | 80 to 100 | – | – |
| > 90 | C=C(CN(C(=O)c1c(C(F)F)nn(C)c1F)C1CC1)c1ccc(C(C)C)cc1C [Compound 41] | 80 to 100 | 80 to 100 | – | – |
| > 90 | CC(C(=C(Cl)Cl)c1ccc(Br)cc1Br)N(C(=O)c1c(C(F)F)nn(C)c1F)C1CC1 (stereo not shown) [Compound 187] | 80 to 100 | 80 to 100 | – | – |
| > 90 | C=C(c1cccc(Br)c1)C(C)N(C(=O)c1c(C(F)F)nn(C)c1F)C1CC1 (stereo not shown) [Compound 81] | 80 to 100 | 80 to 100 | – | – |
| > 90 | CC(C(=C(Cl)Cl)c1ccc(Cl)c(Cl)c1)N(C(=O)c1c(C(F)F)nn(C)c1F)C1CC1 (stereo not shown) [Compound 173] | 80 to 100 | 80 to 100 | – | – |
| > 90 | CC(C(=C(Cl)Cl)c1c(Br)cccc1Br)N(C(=O)c1c(C(F)F)nn(C)c1F)C1CC1 (stereo not shown) [Compound 189] | 80 to 100 | 80 to 100 | – | – |
| > 90 | C=C(c1cccc(Cl)c1Cl)C(C)N(C(=O)c1c(C(F)F)nn(C)c1F)C1CC1 (stereo not shown) [Compound 75] | 80 to 100 | 80 to 100 | – | – |
| > 90 | CC(C(=C(Cl)Cl)c1ccc(Cl)cc1F)N(C(=O)c1c(C(F)F)nn(C)c1F)C1CC1 (stereo not shown) [Compound 206] | 80 to 100 | 80 to 100 | – | – |
| > 90 | CC(C(=C(Cl)Cl)c1c(Cl)cc(Cl)cc1Cl)N(C(=O)c1c(C(F)F)nn(C)c1F)C1CC1 (stereo not shown) [Compound 175] | 80 to 100 | 80 to 100 | – | – |
| > 90 | C=C(c1ccc(C)cc1)C(C)N(C(=O)c1c(C(F)F)nn(C)c1F)C1CC1 (stereo not shown) [Compound 60] | 80 to 100 | 80 to 100 | – | – |
| > 90 | Cn1nc(C(F)F)c(C(=O)N(CC(=C(Cl)Cl)c2c(F)cccc2F)C2CC2)c1F [Compound 128] | 80 to 100 | 80 to 100 | – | – |
| > 90 | Cn1nc(C(F)F)c(C(=O)N(CC(=C(Cl)Cl)c2ccc(C(F)(F)F)cc2Cl)C2CC2)c1F [Compound 158] | 80 to 100 | 80 to 100 | – | – |
| > 90 | C=C(CN(C(=O)c1c(C(F)F)nn(C)c1F)C1CC1)c1ccccc1S(C)(=O)=O [Compound 50] | 80 to 100 | 80 to 100 | – | – |
| > 90 | C=C(c1ccc(F)c(F)c1)C(C)N(C(=O)c1c(C(F)F)nn(C)c1F)C1CC1 (stereo not shown) [Compound 62] | 80 to 100 | 80 to 100 | – | – |
| > 90 | Cn1nc(C(F)F)c(C(=O)N(CC(=C(Cl)Cl)c2cc(C(F)(F)F)ccc2Cl)C2CC2)c1F [Compound 156] | 80 to 100 | 80 to 100 | – | – |
| > 90 | CC(C(=C(Cl)Cl)c1c(F)cc(F)cc1F)N(C(=O)c1c(C(F)F)nn(C)c1F)C1CC1 (stereo not shown) [Compound 182] | 80 to 100 | 80 to 100 | – | – |
| > 90 | Cc1cc(C)c(C(=C(Cl)Cl)C(C)N(C(=O)c2c(C(F)F)nn(C)c2F)C2CC2)c(C)c1 (stereo not shown) [Compound 196] | 80 to 100 | 80 to 100 | – | – |
| > 90 | Cn1nc(C(F)F)c(C(=O)N(CC(=C(Cl)Cl)c2ccc(Cl)cc2F)C2CC2)c1F [Compound 153] | 80 to 100 | 80 to 100 | – | – |
